{
  "source": "patent US20150306081A1",
  "about": "“Chemotherapy for Drug-Resistant Cancer Cells” (THE UNIVERSITY OF SYDNEY, priority 2012, published 2015)",
  "key": {"[1]": {"system": "KBV1 cells", "experiment": "MTT cytotoxicity after transient knockdown of Pgp (MDR1 siRNA) in KBV1 cells", "format": "cell-based, Human", "conditions": "Pgp siRNA vs. Scr siRNA, 72 h", "description": "(§1) The effect of anti-cancer agents on cellular proliferation was examined using the MTT [3-(4,5-dimethylthiazol-2-yl)-2,5-diphenyl tetrazolium] method. In this assay, 3×10^3 cells/well were seeded in 96-well plates in 100 μL of media. The next day, serially diluted drugs of interest were added. […] The cells were incubated at 37° C. in a humidified atmosphere containing 5% CO2 and 95% air for 72 h. After this incubation, 10 μL of MIT (5 mg/mL) was added to each well and the incubation continued at 37° C. for 2 h. After solubilization of the cells with 100 μL of 10% SDS-50% isobutanol in 10 mM HCl, the plates were read at 570 nm using a scanning multi-well spectrophotometer (Victor™ Multilabel Counter plate reader; Perkin Elmer, Australia). Results were analyzed to calculate the concentration of chelator or complex necessary to reduce the absorbance to 50% (IC50) of the control.\nFor all siRNA treatments against MDR1 (MDR1-siRNA; Cat #: 4123, Life Technologies), a siRNAlipofectamine mixture (50 nM MDR1 siRNA and 1/400 lipofectamine 2000) was added to the cells (at 30% confluency) and incubated for 72 h/37° C. prior to further experimentation. The effectiveness of Pgp knockdown was confirmed using western blot and also assessing DOX cytotoxicity via the MTT assay. As a control, scrambled siRNA (Scr siRNA; Life Technologies) was used at the same concentration as MDR1 siRNA."}, "[2]": {"system": "2008/P200A cells", "experiment": "Uptake of 14C-Dp44mT, 2008/P200A cells", "format": "cell-based", "conditions": "2008/P200 cells, NH4Cl, MA or CLQ pre-incubation", "description": "(§2) For the uptake assay, each 35 mm culture dish containing 5×10^5 cells was incubated with ^14C-doxorubicin, ^3H-vinblastine or ^14C-Dp44mT (all at 1 μCi) for 30 min/37° C. Cells were then washed on ice three times with ice-cold PBS and collected for analysis. Drug uptake was calculated as the number of drug molecules/cell. […] For studies using lysosomotropic agents, cells were pre-incubated with NH4Cl (5 mM), CLQ (100 μM) or MA (100 μM) for 30 min/37° C. prior to ^14C-Dp44mT uptake. […] For efflux assays, the same labeling procedure was conducted as in the uptake assay. […] After this procedure, the overlying media was removed using a Pasteur pipette and then placed in a counting vial. The cells were removed from the plate in 1 mL of PBS and then dispensed into a separate counting vial. The radiolabeled-drug efflux was calculated as a percentage of the total drug uptake by the cells found at zero time."}, "[3]": {"system": "2008 cells", "experiment": "Uptake of 14C-Dp44mT, 2008 cells", "format": "cell-based", "conditions": "NH4Cl, MA or CLQ pre-incubation", "description": "as §2"}, "[4]": {"molecular_target": "Pgp (Homo sapiens, UniProt P08183)", "sequence (P08183 whole entry)": "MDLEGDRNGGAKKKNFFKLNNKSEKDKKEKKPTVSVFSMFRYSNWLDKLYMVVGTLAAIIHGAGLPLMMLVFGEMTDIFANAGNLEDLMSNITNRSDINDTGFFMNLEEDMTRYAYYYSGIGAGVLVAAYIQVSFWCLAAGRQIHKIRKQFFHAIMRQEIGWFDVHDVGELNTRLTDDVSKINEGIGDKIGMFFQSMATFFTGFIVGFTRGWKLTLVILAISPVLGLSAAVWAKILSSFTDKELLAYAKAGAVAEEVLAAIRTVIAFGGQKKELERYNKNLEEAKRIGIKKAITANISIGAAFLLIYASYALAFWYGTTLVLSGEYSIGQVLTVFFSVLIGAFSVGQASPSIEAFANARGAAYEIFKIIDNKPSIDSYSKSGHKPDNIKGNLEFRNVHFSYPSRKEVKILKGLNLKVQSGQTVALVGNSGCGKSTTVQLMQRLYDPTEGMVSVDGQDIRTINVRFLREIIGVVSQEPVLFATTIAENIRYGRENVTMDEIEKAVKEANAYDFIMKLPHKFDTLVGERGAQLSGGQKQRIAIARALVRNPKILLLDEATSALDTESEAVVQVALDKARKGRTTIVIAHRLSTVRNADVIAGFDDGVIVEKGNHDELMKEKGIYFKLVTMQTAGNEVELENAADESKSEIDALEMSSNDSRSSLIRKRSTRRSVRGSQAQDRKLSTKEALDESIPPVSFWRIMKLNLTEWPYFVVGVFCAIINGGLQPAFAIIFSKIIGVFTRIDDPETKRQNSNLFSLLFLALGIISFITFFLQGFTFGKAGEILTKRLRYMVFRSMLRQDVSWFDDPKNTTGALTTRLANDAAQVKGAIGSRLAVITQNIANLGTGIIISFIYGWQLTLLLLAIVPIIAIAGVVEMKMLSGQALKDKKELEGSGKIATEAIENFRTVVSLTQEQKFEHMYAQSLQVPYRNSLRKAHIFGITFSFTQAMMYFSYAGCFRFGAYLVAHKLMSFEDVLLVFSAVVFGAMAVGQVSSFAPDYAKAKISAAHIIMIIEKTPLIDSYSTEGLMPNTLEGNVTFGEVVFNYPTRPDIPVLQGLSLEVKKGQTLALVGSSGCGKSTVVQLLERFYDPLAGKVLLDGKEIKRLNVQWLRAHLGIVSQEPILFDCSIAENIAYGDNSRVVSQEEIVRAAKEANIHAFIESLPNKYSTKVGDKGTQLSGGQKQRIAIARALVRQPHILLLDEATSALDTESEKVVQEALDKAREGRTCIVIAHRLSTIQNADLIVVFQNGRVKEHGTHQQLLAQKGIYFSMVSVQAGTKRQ", "experiment": "Rhodamine 123 accumulation assay, KBV1 cells", "format": "cell-based", "conditions": "0.1 μM or above", "description": "Cells were then harvested and resuspended in ice-cold PBS and kept on ice until flow cytometric analysis (see below).\nThe dyes, Rh123 and acridine orange were detected with the FACS Canto flow cytometer (BD Biosciences) and 10,000 events were acquired for every sample. Data analysis was performed using FlowJo software, version 7.5.5 (Tree Star Inc., Ashland, OR)."}, "[5]": {"system": "non-Pgp expressing 2008 cells", "experiment": "MTT proliferation assay, 2008 cells", "format": "cell-based", "conditions": "2008 cells, Val 1 μM, Ela 0.1 μM", "description": "The 2008 ovarian carcinoma cell line and the PAC-resistant 2008/P200A cell line (grown in 200 ng/mL of PAC) were kindly provided by Dr. John Allen (Centenary Institute, Sydney, Australia). Cells were grown in Dulbecco's modified Eagle's medium (DMEM; Life Technologies) with 10% (v/v) fetal calf serum (Sigma-Aldrich, St. Louis, Mo.) and supplemented with the following additions from Life Technologies: 1% (v/v) sodium pyruvate, 1% (v/v) non-essential amino acids, 100 U/mL penicillin, 100 μg/mL streptomycin, 2 mM L-glutamine and 0.28 μg/mL fungizone. The cells were then incubated at 37° C. in a humidified atmosphere of 5% CO2 and 95% air.\nas §1"}, "[6]": {"system": "non-Pgp expressing KB31 cells", "experiment": "Uptake of radio-labeled drug, KB31 cells", "format": "cell-based, Human", "description": "as §2"}, "[7]": {"system": "Pgp-expressing KBV1 cells", "experiment": "Uptake of radio-labeled drug, KBV1 cells", "format": "cell-based, Human", "description": "as §2, with “Cells” for “For the uptake assay, each 35 mm culture dish containing 5×10^5 cells was incubated with ^14C-doxorubicin, ^3H-vinblastine or ^14C-Dp44mT (all at 1 μCi) for 30 min/37° C. Cells”, “vial.” for “vial. The radiolabeled-drug efflux was calculated as a percentage of the total drug uptake by the cells found at zero time.”"}},
  "data": [
    {"smiles": "CN(C)C(=S)NN=C(c1ccccn1)c1ccccn1", "note": "[Dp44mT, di-2-pyridylketone 4,4-dimethyl-3-thiosemicarbazone]", "values": [
      {"measurement": "increase of IC50 by knockdown of Pgp", "setting": "[1]", "result": 10, "unit": "fold"},
      {"measurement": "accumulation after pre-treatment with lysosomotropic agents", "setting": "[2]", "result": "significantly (p<0.001) decreased"},
      {"measurement": "accumulation after pre-treatment with lysosomotropic agents", "setting": "[3]", "result": "did not significantly affect"},
      {"measurement": "increased accumulation of Rh123", "setting": "[4]", "result": "up to two fold"},
      {"measurement": "change of cytotoxicity in presence of Pgp inhibitors Val or Ela", "setting": "[5]", "result": "no significant (p>0.05) change"},
      {"measurement": "accumulation after pre-treatment with lysosomotropic agents", "setting": "[6]; NH4Cl, MA or CLQ pre-incubation", "result": "did not significantly affect"},
      {"measurement": "effect of Pgp inhibitors Val and Ela on uptake", "setting": "[6]; Val 1 μM or Ela 0.1 μM pre-incubation, versus control", "result": "did not significantly alter radiolabel uptake"},
      {"measurement": "accumulation after pre-treatment with lysosomotropic agents", "setting": "[7]; KBV1 cells, NH4Cl, MA or CLQ pre-incubation 30 min/37° C.", "result": "significantly (p<0.001) decreased"},
      {"measurement": "effect of Pgp inhibitors Val and Ela on uptake", "setting": "[7]; KBV1 cells, Val 1 μM or Ela 0.1 μM pre-incubation, versus control", "result": "significantly (p<0.001) increased the uptake"},
      {"measurement": "cellular accumulation in KBV1 cells relative to KB31 cells", "setting": "[7]; control groups, 1 μCi", "result": "significantly (p<0.001) less"}
    ]}
  ]
}
